Patent US11566007B2, “Ras inhibitors” (Revolution Medicines, Inc., priority 2019, dated 2023)

Assays:
[1] = molecular target: KRAS G12V (Homo sapiens (Human), UniProt P01116+P62937, G12V); test: Ras-Raf (BRAF RBD) disruption / FRET / MOA assay, KRAS G12V; format: biochemical; conditions: read-out: IC50* KRAS G12V FRET data
Method in brief: (§1)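 TR-FRET read-out: a drop in ratio relative to DMSO wells marks disruption of the Ras:RAF complex, reported as IC50. Compounds (3-fold series, 10 points, top 30 μM final) incubated 3 h at 25° C before Eu-anti-His 10 nM and APC-anti-GST 50 nM, 1.5 h more.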

[2] = molecular target: NRAS Q61K (Homo sapiens (Human), UniProt P01111+P62937, Q61K); test: Ras-Raf (BRAF RBD) disruption / FRET / MOA assay, NRAS Q61K; format: biochemical; conditions: NRAS Q61K; Ras-Raf disruption/FRET/MOA assay; read-out: IC50* NRAS Q61K FRET data
Sequence of NRAS Q61K (P01111 whole entry Q61K): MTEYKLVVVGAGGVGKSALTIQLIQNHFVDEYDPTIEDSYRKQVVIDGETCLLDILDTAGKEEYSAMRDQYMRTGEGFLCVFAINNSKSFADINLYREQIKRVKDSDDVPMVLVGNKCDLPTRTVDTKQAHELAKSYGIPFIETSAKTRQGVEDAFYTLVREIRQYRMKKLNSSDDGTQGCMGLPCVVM
Sequence of NRAS Q61K (P62937 whole entry): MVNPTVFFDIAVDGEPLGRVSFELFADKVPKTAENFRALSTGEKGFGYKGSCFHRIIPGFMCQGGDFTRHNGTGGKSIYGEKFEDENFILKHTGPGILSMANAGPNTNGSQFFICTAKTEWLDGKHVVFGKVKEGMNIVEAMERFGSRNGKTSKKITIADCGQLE
Method in brief: (§2)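 Compounds were tested as a 10-point 3-fold dilution series from 30 μM final for their ability to drive ternary complex formation between nucleotide-loaded Ras and cyclophilin A, displacing the BRAF RBD. After 3 h at 25° C., anti-His Eu-W1024 (10 nM) and anti-GST allophycocyanin (50 nM) were added for 1.5 h. A TR-FRET ratio decrease versus DMSO gave IC50.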

[3] = molecular target: K-Ras G13C (Homo sapiens (Human), UniProt P01116+P62937, G13C); test: Ras-Raf (BRAF RBD) disruption / FRET / MOA assay, KRAS G13C; format: biochemical; conditions: KRAS G13C; Ras-Raf disruption/FRET/MOA assay; read-out: IC50* KRAS G13C FRET data
Sequence of K-Ras G13C (P01116-2 other isoform, or with tags, fused parts or gaps G13C): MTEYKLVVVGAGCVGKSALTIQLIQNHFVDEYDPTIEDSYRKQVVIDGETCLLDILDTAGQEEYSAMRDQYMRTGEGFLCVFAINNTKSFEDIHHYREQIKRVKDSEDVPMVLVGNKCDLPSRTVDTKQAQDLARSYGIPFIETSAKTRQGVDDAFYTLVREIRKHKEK
Sequence of K-Ras G13C (P62937 whole entry): as the sequence (P62937 whole entry) above
Method in brief: as §1

[4] = molecular target: KRAS G12S (Homo sapiens (Human), UniProt P01116+P62937, G12S); test: Ras-Raf (BRAF RBD) disruption / FRET / MOA assay, KRAS G12S; format: biochemical; conditions: Ras-Raf disruption/FRET/MOA assay; class symbols; read-out: KRAS G12S FRET data IC50
Sequence of KRAS G12S (P01116-2 other isoform, or with tags, fused parts or gaps G12S): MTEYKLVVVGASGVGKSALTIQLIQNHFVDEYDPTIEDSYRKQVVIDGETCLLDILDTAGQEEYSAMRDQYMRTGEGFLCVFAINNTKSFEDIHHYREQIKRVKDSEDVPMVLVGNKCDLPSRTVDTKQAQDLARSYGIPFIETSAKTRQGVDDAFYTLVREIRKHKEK
Sequence of KRAS G12S (P62937 whole entry): as the sequence (P62937 whole entry) above
Method in brief: as §1

[5] = molecular target: NRAS WT (Homo sapiens (Human), UniProt P01111+P62937); test: Ras-Raf (BRAF RBD) disruption / FRET / MOA assay, NRAS WT; format: biochemical; conditions: read-out: IC50* NRAS WT FRET data
Sequence of NRAS WT (P01111 whole entry): as the sequence (P01111 whole entry Q61K) above, with K61Q counted along it
Sequence of NRAS WT (P62937 whole entry): as the sequence (P62937 whole entry) above
Method in brief: as §2

[6] = molecular target: KRAS G13D (Homo sapiens (Human), UniProt P01116+P62937, G13D); test: Ras-Raf (BRAF RBD) disruption / FRET / MOA assay, KRAS G13D; format: biochemical; conditions: read-out: IC50* KRAS G13D FRET data
Sequence of KRAS G13D (P01116-2 other isoform, or with tags, fused parts or gaps G13D): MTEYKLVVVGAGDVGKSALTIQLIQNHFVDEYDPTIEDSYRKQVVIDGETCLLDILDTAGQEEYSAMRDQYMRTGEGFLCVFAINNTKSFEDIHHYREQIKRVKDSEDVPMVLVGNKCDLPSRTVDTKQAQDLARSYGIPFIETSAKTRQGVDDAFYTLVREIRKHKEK
Sequence of KRAS G13D (P62937 whole entry): as the sequence (P62937 whole entry) above
Method in brief: as §1

[7] = test system: NCI-H358 (K-Ras G12C); test: CellTiter-Glo cell viability assay, NCI-H358; format: cell-based, human; conditions: Homo sapiens, NCI-H358, 120 h, NCI-H358, 5-day treatment; class symbols; read-out: Additional H358 Cell Viability assay data (K-Ras G12C, IC50)
Method in brief: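 Cells seeded, compound added directly, 5-day exposure. Plates to RT ~30 min, CellTiter-Glo luminescence read. Normalized to DMSO avg (x100); 4-parameter logistic fit.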

[8] = molecular target: KRAS Q61H (Homo sapiens (Human), UniProt P01116+P62937, Q61H); test: Ras-Raf (BRAF RBD) disruption / FRET / MOA assay, KRAS Q61H; format: biochemical; conditions: Ras-Raf disruption/FRET/MOA assay; class symbols; read-out: KRAS Q61H FRET data IC50
Sequence of KRAS Q61H (P01116-2 other isoform, or with tags, fused parts or gaps Q61H): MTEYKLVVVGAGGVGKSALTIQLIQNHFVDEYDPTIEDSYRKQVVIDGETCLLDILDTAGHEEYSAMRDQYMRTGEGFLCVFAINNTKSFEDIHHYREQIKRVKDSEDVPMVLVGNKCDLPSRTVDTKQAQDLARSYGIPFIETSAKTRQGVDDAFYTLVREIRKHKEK
Sequence of KRAS Q61H (P62937 whole entry): as the sequence (P62937 whole entry) above
Method in brief: as §2

[9] = molecular target: NRAS Q61R (Homo sapiens (Human), UniProt P01111+P62937, Q61R); test: Ras-Raf (BRAF RBD) disruption / FRET / MOA assay, NRAS Q61R; format: biochemical; conditions: NRAS Q61R; Ras-Raf disruption/FRET/MOA assay; read-out: IC50* NRAS Q61R FRET data
Sequence of NRAS Q61R (P01111 whole entry Q61R): as the sequence (P01111 whole entry Q61K) above, with K61R counted along it
Sequence of NRAS Q61R (P62937 whole entry): as the sequence (P62937 whole entry) above
Method in brief: as §2

[10] = molecular target: KRAS G12D (Homo sapiens (Human), UniProt P01116+P62937, G12D); test: Ras-Raf (BRAF RBD) disruption / FRET / MOA assay, KRAS G12D; format: biochemical; conditions: Ras-Raf disruption/FRET/MOA assay; class symbols; read-out: KRAS G12D FRET data IC50
Sequence of KRAS G12D (P01116-2 other isoform, or with tags, fused parts or gaps G12D): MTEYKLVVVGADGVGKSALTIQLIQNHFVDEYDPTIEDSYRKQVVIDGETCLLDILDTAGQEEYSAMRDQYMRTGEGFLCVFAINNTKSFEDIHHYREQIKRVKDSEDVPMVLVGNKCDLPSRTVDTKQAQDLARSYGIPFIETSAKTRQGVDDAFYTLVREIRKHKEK
Sequence of KRAS G12D (P62937 whole entry): as the sequence (P62937 whole entry) above
Method in brief: as §1

[11] = molecular target: KRAS WT (Homo sapiens (Human), UniProt P01116+P62937); test: Ras-Raf (BRAF RBD) disruption / FRET / MOA assay, KRAS WT; format: biochemical; conditions: read-out: IC50* KRAS WT FRET data
Sequence of KRAS WT (P01116-2 other isoform, or with tags, fused parts or gaps): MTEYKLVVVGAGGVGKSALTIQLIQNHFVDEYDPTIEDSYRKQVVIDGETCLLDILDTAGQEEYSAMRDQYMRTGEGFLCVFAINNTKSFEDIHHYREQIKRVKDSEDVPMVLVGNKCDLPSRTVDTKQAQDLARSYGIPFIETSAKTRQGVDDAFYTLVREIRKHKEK
Sequence of KRAS WT (P62937 whole entry): as the sequence (P62937 whole entry) above
Method in brief: as §1

[12] = molecular target: NRAS G12C (Homo sapiens (Human), UniProt P01111+P62937, G12C); test: Ras-Raf (BRAF RBD) disruption / FRET / MOA assay, NRAS G12C; format: biochemical; conditions: read-out: IC50* NRAS G12C FRET data
Sequence of NRAS G12C (P01111 whole entry G12C): as the sequence (P01111 whole entry Q61K) above, with G12C, K61Q counted along it
Sequence of NRAS G12C (P62937 whole entry): as the sequence (P62937 whole entry) above
Method in brief: as §1

Sequence of KRAS G12V (P01116-2 other isoform, or with tags, fused parts or gaps G12V): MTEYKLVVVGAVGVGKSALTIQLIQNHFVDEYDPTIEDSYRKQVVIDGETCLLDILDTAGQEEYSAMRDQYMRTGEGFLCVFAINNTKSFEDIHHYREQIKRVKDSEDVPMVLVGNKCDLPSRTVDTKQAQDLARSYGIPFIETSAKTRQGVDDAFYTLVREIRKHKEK
Sequence of KRAS G12V (P62937 whole entry): as the sequence (P62937 whole entry) above

| SMILES | IC50 [1] [nM] | IC50 [2] [nM] | IC50 [3] [nM] | IC50 [4] [nM] | IC50 [5] [nM] | IC50 [6] [nM] | IC50 [7] [nM] | IC50 [8] [nM] | IC50 [9] [nM] | IC50 [10] [nM] | IC50 [11] [nM] | IC50 [12] [nM] |
| --- | --- | --- | --- | --- | --- | --- | --- | --- | --- | --- | --- | --- |
| C=CC(=O)Nc1ncc(C(=O)N(C)[C@H](C(=O)N[C@H]2Cc3cccc(c3)-c3ccc4c(c3)c(c(-c3cccnc3[C@H](C)OC)n4CC)CC(C)(C)COC(=O)[C@@H]3CCCN(N3)C2=O)C(C)C)n1C (atropisomer, axis not shown) [Example A474] | 1000 to 10000 | 1000 to 10000 | < 10 | 1000 to 10000 | 1000 to 10000 | 1000 to 10000 | < 10 | 100 to 1000 | 1000 to 10000 | > 10000 | 1000 to 10000 | < 10 |
| CCn1c(-c2cccnc2[C@H](C)OC)c2c3cc(ccc31)-c1cccc(c1)C[C@H](NC(=O)[C@@H](CO[C@H]1CCN(C(=O)C#CC(C)(C)N(C)C)C1)C(C)C)C(=O)N1CCC[C@H](N1)C(=O)OCC(C)(C)C2 (atropisomer, axis not shown) [Example A585] | 1000 to 10000 | > 10000 | 1000 to 10000 | 1000 to 10000 | 1000 to 10000 | > 10000 | < 10 | 1000 to 10000 | > 10000 | > 10000 | 1000 to 10000 | 10 to 100 |
| CO[C@@H](C)c1ncccc1-c1c2c3cc(ccc3n1CC(F)(F)F)N1CCO[C@@H](C[C@H](NC(=O)[C@H](C(C)C)N3CC[C@]4(CCN(C(=O)C#CC(C)(C)N(C)C)C4)C3=O)C(=O)N3CCC[C@H](N3)C(=O)OCC(C)(C)C2)C1 (atropisomer, axis not shown) [Example A642] | 1000 to 10000 | > 10000 | 100 to 1000 | 1000 to 10000 | 1000 to 10000 | 1000 to 10000 | < 10 | 1000 to 10000 | > 10000 | > 10000 | 1000 to 10000 | < 10 |
| C=CC(=O)N1CC2(C1)OCCN2C(=O)N(C)[C@H](C(=O)N[C@H]1Cc2nc(cs2)-c2ccc3c(c2)c(c(-c2cccnc2[C@H](C)OC)n3CC)CC(C)(C)COC(=O)[C@@H]2CCCN(N2)C1=O)C(C)C (atropisomer, axis not shown) [Example A620] | 100 to 1000 | 10 to 100 | 100 to 1000 | 100 to 1000 | 100 to 1000 | 100 to 1000 | < 10 | 10 to 100 | 100 to 1000 | 1000 to 10000 | 100 to 1000 | < 10 |
| CCn1c(-c2cccnc2[C@H](C)OC)c2c3cc(ccc31)C1=CCCN(C1)C[C@H](NC(=O)[C@H](C(C)C)N(C)C(=O)C1(F)CCN(C(=O)C#CC(C)(C)N(C)C)CC1)C(=O)N1CCC[C@H](N1)C(=O)OCC(C)(C)C2 (atropisomer, axis not shown) [Example A591] | 100 to 1000 | 1000 to 10000 | 10 to 100 | 100 to 1000 | 100 to 1000 | 100 to 1000 | < 10 | 100 to 1000 | 100 to 1000 | 1000 to 10000 | 100 to 1000 | < 10 |
| C=CS(=O)(=O)N1CCC2(CCN([C@H](C(=O)N[C@H]3Cc4cc(O)cc(c4)-c4ccc5c(c4)c(c(-c4cccnc4[C@H](C)OC)n5CC)CC(C)(C)COC(=O)[C@@H]4CCCN(N4)C3=O)C(C)C)C2=O)CC1 (atropisomer, axis not shown) [Example A299] | 100 to 1000 | 10 to 100 | < 10 | 10 to 100 | 10 to 100 | 100 to 1000 | < 10 | < 10 | 100 to 1000 | 1000 to 10000 | 10 to 100 | < 10 |
| C=CC(=O)N1CCO[C@H]2CN(C(=O)N(C)[C@H](C(=O)N[C@H]3CC4=NN=C(O4)c4ccc5c(c4)c(c(-c4cccnc4[C@H](C)OC)n5CC(F)(F)F)CC(C)(C)COC(=O)[C@@H]4CCCN(N4)C3=O)C(C)C)C[C@H]21 (atropisomer, axis not shown) [Example A576] | > 10000 | 1000 to 10000 | 100 to 1000 | > 10000 | 1000 to 10000 | > 10000 | 100 to 1000 | 1000 to 10000 | > 10000 | > 10000 | 1000 to 10000 | 100 to 1000 |
| CCn1c(-c2cccnc2[C@H](C)OC)c2c3cc(ccc31)-c1cccc(c1)C[C@H](NC(=O)[C@H](C(C)C)N1CC[C@]3(CCN(C(=O)C#C[C@@]4(N(C)C)CCOC4)C3)C1=O)C(=O)N1CCC[C@H](N1)C(=O)OCC(C)(C)C2 (atropisomer, axis not shown) [Example A560] | 1000 to 10000 | 1000 to 10000 | 100 to 1000 | 100 to 1000 | 1000 to 10000 | 1000 to 10000 | < 10 | 100 to 1000 | 1000 to 10000 | 1000 to 10000 | 1000 to 10000 | 10 to 100 |
| CCn1c(-c2cccnc2[C@H](C)OC)c2c3cc(ccc31)-c1csc(n1)C[C@H](NC(=O)[C@@H](COC1CN(C(=O)C#CC(C)(C)N(C)C)C1)C(C)C)C(=O)N1CCC[C@H](N1)C(=O)OCC(C)(C)C2 (atropisomer, axis not shown) [Example A721] | 1000 to 10000 | > 10000 | 1000 to 10000 | > 10000 | 1000 to 10000 | > 10000 | < 10 | 1000 to 10000 | > 10000 | > 10000 | > 10000 | < 10 |
| CCn1c(-c2cccnc2[C@H](C)OC)c2c3cc(ccc31)-c1cc(F)cc(c1)C[C@H](NC(=O)[C@@H](COC1CN(C(=O)C#CC(C)(C)N(C)C)C1)C(C)C)C(=O)N1CCC[C@H](N1)C(=O)OCC(C)(C)C2 (atropisomer, axis not shown) [Example A403] | 1000 to 10000 | > 10000 | 1000 to 10000 | > 10000 | > 10000 | > 10000 | < 10 | 1000 to 10000 | > 10000 | > 10000 | > 10000 | 10 to 100 |
